The Ki is a measure of affinity in units of concentration, obtained from inhibition or displacement. Broadly, the EC50 is the midpoint of the concentration-response curve. In general, IC50 refers to the concentration at which inhibition is half-maximal.

Assay [1] addresses T1, Neuronal acetylcholine receptor subunit alpha-7 (Rattus norvegicus, UniProt Q05941). Description: Displacement of [125I]alpha-bungarotoxin from rat alpha7 nAChR expressed in HEK293 cell membranes after 2 hrs by topcount scintillation counting analysis. (In general: Displacement assays read how much labelled ligand stays bound in the presence of the test substance.)
Assay [2] concerns the target T1, Neuronal acetylcholine receptor subunit alpha-7. Description: Agonist activity at rat alpha7 nAChR expressed in HEK293 cells co-expressing human RIC-3 assessed as increase in calcium flux measured for 2 mins by Fluo-4 AM dye based FLIPR assay. It counts as cell-based. Background: A change in cytosolic calcium serves as a functional read-out for many receptors and channels.

Assay [3] concerns the target T2, 5-hydroxytryptamine receptor 3A (Homo sapiens, UniProt P46098).
T2 sequence (P46098 whole entry): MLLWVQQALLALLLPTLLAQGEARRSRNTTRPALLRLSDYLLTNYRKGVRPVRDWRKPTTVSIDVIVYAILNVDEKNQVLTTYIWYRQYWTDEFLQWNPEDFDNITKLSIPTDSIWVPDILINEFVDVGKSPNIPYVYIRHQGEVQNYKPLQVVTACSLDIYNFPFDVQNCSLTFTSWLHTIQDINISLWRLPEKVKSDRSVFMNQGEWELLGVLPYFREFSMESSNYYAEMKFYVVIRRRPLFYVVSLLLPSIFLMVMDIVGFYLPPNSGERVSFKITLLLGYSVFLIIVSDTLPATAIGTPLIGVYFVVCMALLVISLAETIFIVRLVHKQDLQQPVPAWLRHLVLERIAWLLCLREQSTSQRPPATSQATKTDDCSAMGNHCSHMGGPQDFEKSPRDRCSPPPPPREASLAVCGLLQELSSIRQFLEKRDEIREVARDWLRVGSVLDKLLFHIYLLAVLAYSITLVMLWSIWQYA
Kind of assay: Antagonist activity at human 5-HT3A receptor expressed in HEK293 cells assessed as inhibition of 5-HT-induced calcium flux preincubated for 30 mins prior to 5-HT addition by Fluo-4 AM dye based FLIPR assay. It counts as cell-based.

Assay [4] in a line: Selectivity ratio of IC50 for human 5-HT3A receptor expressed in HEK293 cells to EC50 for rat alpha7 nAChR expressed in HEK293 cells. It counts as cell-based.
Assay [5] has as its target Neuronal acetylcholine receptor; alpha3/beta4 (Rattus norvegicus, UniProt P04757+P12392). Kind of assay: Agonist activity at rat alpha3beta4 nAChR expressed in HEK293 cells assessed as increase in calcium flux measured for 2 mins by Fluo-4-AM dye based FLIPR assay. The format is cell-based.
Assay [6] in a line: Agonist activity at rat alpha1beta1deltaepsilon nAChR expressed in HEK293 cells assessed as increase in calcium flux measured for 2 mins by Fluo-4-AM dye based FLIPR assay. The format is cell-based. Conditions: HEK293, 2 min.
The target in assay [7] is Neuronal acetylcholine receptor; alpha4/beta2 (Rattus norvegicus, UniProt P09483+P12390). Description: Agonist activity at rat alpha4beta2 nAChR expressed in HEK293 cells assessed as increase in calcium flux measured for 2 mins by Fluo-4-AM dye based FLIPR assay. It counts as cell-based.
Assay [8] addresses Neuronal acetylcholine receptor subunit alpha-7 (Homo sapiens, UniProt P36544). Kind of assay: Binding affinity to human alpha7 nAChR.
Assay [9] concerns the target T2, 5-hydroxytryptamine receptor 3A. Kind of assay: Binding affinity to 5-HT3A receptor (unknown origin).

Where only a bound is given, the exact number is not on record here.

T1 sequence (Q05941 whole entry): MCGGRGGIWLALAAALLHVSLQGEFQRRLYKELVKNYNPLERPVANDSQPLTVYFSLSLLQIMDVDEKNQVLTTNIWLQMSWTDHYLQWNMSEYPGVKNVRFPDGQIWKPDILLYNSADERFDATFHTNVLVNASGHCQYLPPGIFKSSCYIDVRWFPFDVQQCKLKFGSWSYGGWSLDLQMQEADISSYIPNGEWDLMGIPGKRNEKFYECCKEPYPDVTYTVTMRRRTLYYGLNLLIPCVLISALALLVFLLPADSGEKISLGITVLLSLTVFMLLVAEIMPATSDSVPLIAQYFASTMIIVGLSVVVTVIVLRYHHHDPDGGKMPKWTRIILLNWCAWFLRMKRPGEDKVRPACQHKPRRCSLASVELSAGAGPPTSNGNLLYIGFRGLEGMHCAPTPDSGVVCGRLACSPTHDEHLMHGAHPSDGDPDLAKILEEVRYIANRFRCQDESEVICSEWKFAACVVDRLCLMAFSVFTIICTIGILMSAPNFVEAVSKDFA
Neuronal acetylcholine receptor subunit alpha-7 (Homo sapiens, UniProt P36544), sequence (P36544 whole entry): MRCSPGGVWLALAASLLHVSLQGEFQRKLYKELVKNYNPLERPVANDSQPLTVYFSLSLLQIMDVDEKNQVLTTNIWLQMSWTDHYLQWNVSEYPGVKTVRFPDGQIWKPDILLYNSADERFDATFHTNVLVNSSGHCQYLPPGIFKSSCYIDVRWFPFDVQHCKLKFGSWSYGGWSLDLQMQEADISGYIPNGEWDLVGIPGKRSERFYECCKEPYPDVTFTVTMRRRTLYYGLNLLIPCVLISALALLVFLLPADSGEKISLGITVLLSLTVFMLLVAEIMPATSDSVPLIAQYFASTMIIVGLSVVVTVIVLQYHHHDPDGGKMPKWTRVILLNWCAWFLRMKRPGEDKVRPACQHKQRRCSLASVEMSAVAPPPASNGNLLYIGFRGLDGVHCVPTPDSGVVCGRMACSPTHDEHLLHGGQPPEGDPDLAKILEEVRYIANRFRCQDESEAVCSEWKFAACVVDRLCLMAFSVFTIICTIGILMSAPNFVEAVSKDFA
Neuronal acetylcholine receptor; alpha4/beta2, sequence (P09483 whole entry): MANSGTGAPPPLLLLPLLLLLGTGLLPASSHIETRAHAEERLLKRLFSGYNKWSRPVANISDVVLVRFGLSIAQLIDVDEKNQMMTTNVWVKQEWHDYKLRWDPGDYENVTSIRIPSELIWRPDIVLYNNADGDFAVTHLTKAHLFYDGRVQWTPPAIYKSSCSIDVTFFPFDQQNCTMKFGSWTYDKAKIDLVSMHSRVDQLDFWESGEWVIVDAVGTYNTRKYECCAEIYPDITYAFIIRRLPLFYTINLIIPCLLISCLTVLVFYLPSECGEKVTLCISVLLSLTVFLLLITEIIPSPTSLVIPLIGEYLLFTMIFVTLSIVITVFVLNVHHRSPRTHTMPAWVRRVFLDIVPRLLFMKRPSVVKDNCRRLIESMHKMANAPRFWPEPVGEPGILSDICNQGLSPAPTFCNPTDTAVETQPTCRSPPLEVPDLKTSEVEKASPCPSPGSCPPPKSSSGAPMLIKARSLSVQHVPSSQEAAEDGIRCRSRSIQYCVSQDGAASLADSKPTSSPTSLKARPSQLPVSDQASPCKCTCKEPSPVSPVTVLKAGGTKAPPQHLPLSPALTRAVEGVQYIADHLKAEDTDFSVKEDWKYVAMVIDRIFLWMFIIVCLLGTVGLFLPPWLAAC
Neuronal acetylcholine receptor; alpha4/beta2, sequence (P12390 whole entry): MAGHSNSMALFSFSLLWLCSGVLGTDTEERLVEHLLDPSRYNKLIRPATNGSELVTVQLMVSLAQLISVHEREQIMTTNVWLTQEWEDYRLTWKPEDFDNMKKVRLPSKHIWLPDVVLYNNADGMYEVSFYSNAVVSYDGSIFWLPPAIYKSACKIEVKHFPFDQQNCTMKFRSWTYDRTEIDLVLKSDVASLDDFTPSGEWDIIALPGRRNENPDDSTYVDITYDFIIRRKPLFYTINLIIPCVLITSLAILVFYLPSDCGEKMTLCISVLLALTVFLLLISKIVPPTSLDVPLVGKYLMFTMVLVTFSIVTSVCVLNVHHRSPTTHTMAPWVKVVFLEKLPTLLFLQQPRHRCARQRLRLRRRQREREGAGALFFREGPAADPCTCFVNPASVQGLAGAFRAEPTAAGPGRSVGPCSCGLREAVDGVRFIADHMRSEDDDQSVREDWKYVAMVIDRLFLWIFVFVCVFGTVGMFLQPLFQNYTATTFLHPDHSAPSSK
Neuronal acetylcholine receptor; alpha3/beta4, sequence (P04757 whole entry): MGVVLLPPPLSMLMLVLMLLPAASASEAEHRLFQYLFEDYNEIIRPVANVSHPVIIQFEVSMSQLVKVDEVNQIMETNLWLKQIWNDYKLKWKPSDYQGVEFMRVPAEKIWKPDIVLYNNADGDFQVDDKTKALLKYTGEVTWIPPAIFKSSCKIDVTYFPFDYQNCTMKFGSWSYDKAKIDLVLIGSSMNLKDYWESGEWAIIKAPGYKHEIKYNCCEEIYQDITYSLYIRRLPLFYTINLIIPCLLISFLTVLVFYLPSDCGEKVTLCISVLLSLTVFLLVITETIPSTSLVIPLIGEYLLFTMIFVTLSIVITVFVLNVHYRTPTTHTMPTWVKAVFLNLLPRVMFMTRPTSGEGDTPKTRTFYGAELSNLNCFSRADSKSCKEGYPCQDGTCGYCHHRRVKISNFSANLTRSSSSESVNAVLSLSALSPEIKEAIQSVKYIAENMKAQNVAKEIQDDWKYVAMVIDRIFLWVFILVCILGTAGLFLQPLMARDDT
Neuronal acetylcholine receptor; alpha3/beta4, sequence (P12392 whole entry): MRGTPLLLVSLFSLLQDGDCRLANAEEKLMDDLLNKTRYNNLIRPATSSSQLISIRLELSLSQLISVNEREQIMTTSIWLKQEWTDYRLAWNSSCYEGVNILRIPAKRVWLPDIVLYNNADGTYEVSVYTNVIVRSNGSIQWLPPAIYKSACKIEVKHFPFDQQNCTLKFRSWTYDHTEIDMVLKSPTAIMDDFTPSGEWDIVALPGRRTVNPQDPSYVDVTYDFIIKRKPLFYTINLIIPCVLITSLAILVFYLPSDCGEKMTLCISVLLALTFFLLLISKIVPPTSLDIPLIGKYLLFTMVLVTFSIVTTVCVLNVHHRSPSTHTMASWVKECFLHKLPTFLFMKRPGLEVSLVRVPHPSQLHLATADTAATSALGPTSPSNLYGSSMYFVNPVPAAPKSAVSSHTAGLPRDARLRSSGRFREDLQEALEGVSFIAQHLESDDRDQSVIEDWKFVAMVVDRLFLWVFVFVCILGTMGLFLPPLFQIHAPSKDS

Compound `c1cnc2c(c1)C[C@@]1(CN3CCC1CC3)O2` [AZD0328] had a Ki in assay [1] of 0.005 µM.

Consider `Brc1nc2n(c1Br)C[C@]1(CN3CCC1CC3)O2`, for which the EC50 in [2] stood at 4.03 µM. For the same compound, the IC50 in [3] worked out at 9.7 µM.

Turning to `Clc1ccc2nc3n(c2c1)C[C@@]1(CN2CCC1CC2)O3`, the Ratio IC50/EC50 in assay [4] was found to be 0.6. In assay [2], the EC50 was 0.014 µM. Further, the IC50 in assay [3] was 0.009 µM.

As to `Cc1ccc2c(c1)nc1n2C[C@@]2(CN3CCC2CC3)O1`, in assay [4], the Ratio IC50/EC50 was 2.6. Besides, the EC50 in assay [2] was determined as 0.005 µM. The IC50 in [3] worked out at 0.013 µM.

Take `Brc1nc2n(c1Br)C[C@@]1(CN3CCC1CC3)O2`: in assay [2], the half-maximal effective concentration (EC50) was found to be 0.019 µM. In [3], the IC50 was found to be 0.043 µM.

On to `FC(F)(F)c1cccc2c1nc1n2C[C@@]2(CN3CCC2CC3)O1`, for which the Ratio IC50/EC50 in assay [4] amounted to 0.5. Also, the EC50 in assay [2] was 0.022 µM. The IC50 in [3] is 0.011 µM.

`c1ccc2c(c1)nc1n2C[C@@]2(CN3CCC2CC3)O1`: in assay [4], the Ratio IC50/EC50 came out at 1.4. Further, the EC50 in [5] is more than 100 µM; in assay [2] it was 0.011 µM; in assay [6], more than 100 µM; in assay [7], more than 100 µM. Also, the IC50 in [3] came to 0.015 µM.

Regarding `COc1ccc2c(c1)nc1n2C[C@@]2(CN3CCC2CC3)O1`, in [4], the Ratio IC50/EC50 is 1.6. In addition, the EC50 in [2] stood at 0.007 µM. In addition, the IC50 in assay [3] stood at 0.011 µM.

For `c1ccc2c(c1)nc1n2C[C@]2(CN3CCC2CC3)O1`, the Ratio IC50/EC50 in assay [4] was 2. Also, the EC50 in [2] amounted to 6.4 µM. The IC50 in [3] amounted to 13 µM.

With `Cc1ccc2nc3n(c2c1)C[C@@]1(CN2CCC1CC2)O3`, the Ratio IC50/EC50 in assay [4] was determined as 0.2. Besides, the EC50 in assay [2] worked out at 0.033 µM. Besides, the IC50 in [3] stood at 0.006 µM.

In the case of `FC(F)(F)c1ccc2c(c1)nc1n2C[C@@]2(CN3CCC2CC3)O1`, in [4], the Ratio IC50/EC50 stood at 51. For the same compound, the 50% effective concentration (EC50) in assay [2] was determined as 0.013 µM. In addition, in assay [3], the 50% inhibitory concentration (IC50) was found to be 0.66 µM.

With `c1ccc(-c2cnc3c(c2)C[C@@]2(CN4CCC2CC4)O3)cc1`, the Ki in assay [8] and in [9] was 0.002 µM throughout.

In the case of `Brc1nc2n(c1Br)CC1(CN3CCC1CC3)O2` (racemic), the EC50 in assay [2] was 0.032 µM. For the same compound, the IC50 in assay [3] worked out at 0.062 µM.

Turning to `Clc1cccc2c1nc1n2C[C@@]2(CN3CCC2CC3)O1`, in [4], the Ratio IC50/EC50 turned out to be 0.3. Further, the EC50 in assay [2] stood at 0.016 µM. Also, the IC50 in [3] came out at 0.004 µM.

`Cc1cccc2c1nc1n2C[C@@]2(CN3CCC2CC3)O1`: the Ratio IC50/EC50 in [4] was 1. In assay [2], the EC50 is 0.007 µM. Further, the concentration for half-maximal inhibition (IC50) in assay [3] was 0.007 µM.

For `Clc1cccc2nc3n(c12)C[C@@]1(CN2CCC1CC2)O3`, the Ratio IC50/EC50 in assay [4] was determined as 0.04. Moreover, in assay [2], the EC50 stood at 0.268 µM. Also, in assay [3], the IC50 amounted to 0.011 µM.

As to `Clc1ccc2c(c1)nc1n2C[C@@]2(CN3CCC2CC3)O1`, the Ratio IC50/EC50 in assay [4] was 0.2. Further, the EC50 in [2] was determined as 0.031 µM. Also, in assay [3], the half-inhibitory concentration (IC50) came to 0.006 µM.

On to `COc1ccc(-c2cccc3c2nc2n3C[C@@]3(CN4CCC3CC4)O2)cc1`, for which the Ratio IC50/EC50 in [4] was found to be 400. Moreover, the EC50 in assay [2] is 0.026 µM. Moreover, in assay [3], the IC50 stood at 10.4 µM.

`FC(F)(F)c1ccc2nc3n(c2c1)C[C@@]1(CN2CCC1CC2)O3`: the Ratio IC50/EC50 in assay [4] was 0.25. For the same compound, the EC50 in assay [2] was 0.069 µM. In addition, in [3], the IC50 came out at 0.017 µM.

For the origin of these results see ChEMBL document CHEMBL4177618, “Design and synthesis of a novel series of (1'S,2R,4'S)-3H-4'-azaspiro[benzo[4,5]imidazo[2,1-b]oxazole-2,2'-bicyclo[2.2.2]octanes] with high affinity for the α7 neuronal nicotinic receptor” (Bioorg Med Chem Lett, 2017).
